Series [1] deals with NOD2. Particulars: reporter assay, NOD-overexpressing HEK cells; cited from earlier work.
Series [2] relates to NOD1. The note with it: reporter assay, NOD-overexpressing HEK cells; cited from earlier work.
Series [3] addresses T1, NOD1 (Homo sapiens, UniProt Q9Y239).
T1 construct: THP-1 cells also express high levels of native functional NOD1 and NOD2 and respond to NOD stimulation by IL-8 secretion; endogenous in cells; host or cells: THP-1 cells (Istituto Zooprofilattico di Brescia)
T1 sequence (Q9Y239 1-953): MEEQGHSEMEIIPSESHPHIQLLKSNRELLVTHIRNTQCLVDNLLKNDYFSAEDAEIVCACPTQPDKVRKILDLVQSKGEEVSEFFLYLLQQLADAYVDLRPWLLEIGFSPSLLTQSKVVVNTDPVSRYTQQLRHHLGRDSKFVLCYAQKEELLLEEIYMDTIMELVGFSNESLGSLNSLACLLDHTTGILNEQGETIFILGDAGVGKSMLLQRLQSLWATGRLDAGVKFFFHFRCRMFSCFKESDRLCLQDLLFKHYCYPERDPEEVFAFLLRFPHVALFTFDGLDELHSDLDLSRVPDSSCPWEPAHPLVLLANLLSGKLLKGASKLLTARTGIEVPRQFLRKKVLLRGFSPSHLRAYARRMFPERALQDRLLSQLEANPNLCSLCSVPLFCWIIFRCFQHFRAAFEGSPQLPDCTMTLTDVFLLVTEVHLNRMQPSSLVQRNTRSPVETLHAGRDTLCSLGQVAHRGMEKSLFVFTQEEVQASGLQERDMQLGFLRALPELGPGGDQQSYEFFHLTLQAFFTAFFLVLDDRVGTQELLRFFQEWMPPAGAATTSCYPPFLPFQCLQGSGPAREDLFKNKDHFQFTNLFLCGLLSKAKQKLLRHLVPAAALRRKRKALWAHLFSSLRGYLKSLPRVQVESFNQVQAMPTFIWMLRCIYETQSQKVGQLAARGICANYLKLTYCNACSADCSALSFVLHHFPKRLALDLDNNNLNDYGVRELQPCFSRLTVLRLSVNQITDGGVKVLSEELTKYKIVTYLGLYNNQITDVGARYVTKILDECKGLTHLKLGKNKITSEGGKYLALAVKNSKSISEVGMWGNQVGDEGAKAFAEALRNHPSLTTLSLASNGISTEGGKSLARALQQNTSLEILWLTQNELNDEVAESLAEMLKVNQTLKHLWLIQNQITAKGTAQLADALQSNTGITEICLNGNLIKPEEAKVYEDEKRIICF
Briefly: C12-iE-DAP (NOD1 agonist)-induced IL-8 secretion from THP-1 cells. The note with it: 1 h pretreatment, C12-iE-DAP 10 µM, 20 h, read-out: IC50 (NOD1), inhibition of IL-8 release. The series is classed as cell-based.
Description: For all experiments, THP-1 cells (Istituto Zooprofilattico di Brescia, Brescia, Italy) were diluted to 10^6 cells/mL in RPMI 1640 containing 2 mM L-glutamine, 0.1 mg/mL streptomycin, 100 IU/mL penicillin, 50 μM 2-mercaptoethanol, and supplemented with 10% heat-inactivated fetal calf serum (media) and cultured at 37 °C in 5% CO2. The experiments were carried out on passages 3–12. To evaluate IL-8 and TNF-α production, cultures were set up in 24-well culture plates containing 500 μL of cells. They were pretreated with selected NOD antagonists at increasing concentrations for 1 h before the addition of either MDP or C12-iE-DAP (both at 10 µM) and then incubated for 20 h. Each concentration was tested in duplicate, and untreated cells were exposed to DMSO, which represented the vehicle control (not exceeding 0.2% final concentration). […] Cell-free supernatants were collected at 20 h by centrifugation at 3000 rpm for 5 min and stored at −80 °C.

In series [4] the target is T2, NOD2 (Homo sapiens, UniProt Q9HC29).
T2 construct: THP-1 cells also express high levels of native functional NOD1 and NOD2 and respond to NOD stimulation by IL-8 secretion; endogenous in cells; host or cells: THP-1 cells (Istituto Zooprofilattico di Brescia)
T2 sequence (Q9HC29 whole entry): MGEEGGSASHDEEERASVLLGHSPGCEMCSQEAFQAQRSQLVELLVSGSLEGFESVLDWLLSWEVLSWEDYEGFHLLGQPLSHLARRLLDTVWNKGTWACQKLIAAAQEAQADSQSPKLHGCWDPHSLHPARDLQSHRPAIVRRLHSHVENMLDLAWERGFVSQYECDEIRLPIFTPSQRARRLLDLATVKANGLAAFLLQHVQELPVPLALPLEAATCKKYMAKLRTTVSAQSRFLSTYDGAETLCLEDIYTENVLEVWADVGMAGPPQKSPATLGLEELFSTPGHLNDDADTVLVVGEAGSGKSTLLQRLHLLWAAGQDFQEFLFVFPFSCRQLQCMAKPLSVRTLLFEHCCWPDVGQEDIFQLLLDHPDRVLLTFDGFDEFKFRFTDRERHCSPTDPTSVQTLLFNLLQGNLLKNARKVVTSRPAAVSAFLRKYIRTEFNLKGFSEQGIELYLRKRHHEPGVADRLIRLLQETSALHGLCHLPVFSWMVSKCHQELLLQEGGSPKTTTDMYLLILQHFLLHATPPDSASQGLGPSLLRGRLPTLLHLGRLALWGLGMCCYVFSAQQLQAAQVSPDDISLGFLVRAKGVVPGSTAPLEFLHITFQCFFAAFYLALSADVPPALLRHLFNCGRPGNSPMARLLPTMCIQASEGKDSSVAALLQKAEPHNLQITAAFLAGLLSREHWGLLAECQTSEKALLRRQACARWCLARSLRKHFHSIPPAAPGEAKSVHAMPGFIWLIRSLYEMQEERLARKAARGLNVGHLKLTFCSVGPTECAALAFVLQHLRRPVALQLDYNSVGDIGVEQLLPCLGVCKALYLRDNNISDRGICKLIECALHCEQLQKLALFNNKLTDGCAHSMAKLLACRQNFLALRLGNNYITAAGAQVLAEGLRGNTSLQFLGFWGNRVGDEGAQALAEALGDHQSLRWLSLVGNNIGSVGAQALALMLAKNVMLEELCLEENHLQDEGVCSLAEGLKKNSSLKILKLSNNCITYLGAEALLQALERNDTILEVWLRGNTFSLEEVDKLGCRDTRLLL
Briefly: MDP (NOD2 agonist)-induced IL-8 secretion from THP-1 cells. Format: cell-based. Particulars: 1 h pretreatment, MDP 10 µM, 20 h, read-out: IC50 (NOD2), inhibition of IL-8 release. The method, then:
(§1) For all experiments, THP-1 cells (Istituto Zooprofilattico di Brescia, Brescia, Italy) were diluted to 10^6 cells/mL in RPMI 1640 containing 2 mM L-glutamine, 0.1 mg/mL streptomycin, 100 IU/mL penicillin, 50 μM 2-mercaptoethanol, and supplemented with 10% heat-inactivated fetal calf serum (media) and cultured at 37 °C in 5% CO2. The experiments were carried out on passages 3–12. To evaluate IL-8 and TNF-α production, cultures were set up in 24-well culture plates containing 500 μL of cells. They were pretreated with selected NOD antagonists at increasing concentrations for 1 h before the addition of either MDP or C12-iE-DAP (both at 10 µM) and then incubated for 20 h. Each concentration was tested in duplicate, and untreated cells were exposed to DMSO, which represented the vehicle control (not exceeding 0.2% final concentration). In synergy studies, cells were additionally stimulated with lipopolysaccharide (LPS, from Escherichia coli serotype 0127:B8, Sigma) at a final concentration of 1–10 ng/mL, as indicated in the figure legends. Cell-free supernatants were collected at 20 h by centrifugation at 3000 rpm for 5 min and stored at −80 °C.
(§2) IL-8 and TNF-α release from THP-1 cells were measured in cell-free supernatants obtained by centrifugation at 3000 rpm for 5 min and stored at −80 °C until measurement. IL-8 and TNF-α production were assessed by specific sandwich ELISA (Immunotools, Friesoythe, Germany; eBioScience/R&D Systems, Minneapolis, MN, USA). Results are expressed in pg/mL. The limit of detection was 15.6 pg/mL for IL-8 and 4 pg/mL for TNF-α.
All experiments were performed at least three times, with average values expressed as means ± standard deviation (SD). Statistical analyses were performed using GraphPad Prism 6 (La Jolla, CA, USA). Statistical significance was determined either with the Mann-Whitney or Kruskal-Wallis followed by a post hoc Dunn’s multiple comparison test, as indicated in the figure legends. Differences were considered nonsignificant for p > 0.05, significant (*) for p < 0.05, very significant (**) for p < 0.01 and extremely significant (***) for p < 0.001. IC50 values of NOD1/2 inhibition were calculated by a nonlinear regression model using GraphPad Prism 6 software.

The test system of series [5] is THP-1 cells. Briefly: LDH leakage cytotoxicity in THP-1 cells. Format: cell-based, human. The note with it: 20 h. Here is the method: Prior to investigating the effects of selected NOD antagonists on cytokine production, their potential cytotoxicity for THP-1 cells was assessed. Cell viability was assessed by leakage of LDH from damaged cells. LDH is a well-known indicator of cell membrane integrity and cell viability. Cells were treated for 20 h with the compound of interest at concentrations of up to 50 µM. LDH activity was determined in cell-free supernatants using a commercially available colorimetric kit (Takara Bio Inc., Kusatsu, Japan). Results are expressed as OD.
(LDH in the medium is a marker of cell lysis.)

The next series concerns NOD1/2–TLR4 synergy. Briefly: NOD1/2–TLR4 synergy: TNF-α release from co-stimulated THP-1 cells. Format: cell-based, human. Particulars: antagonist 10 µM 1 h, NOD agonist 10 µM + LPS 1 ng/mL, 20 h. The method, then: Figure 5 Effect of selected NOD1/NOD2 antagonists on NOD1/2–TLR4 synergy. The THP-1 cells were preincubated for 1 h with NOD antagonists (at 10 µM) before being stimulated with either C12-iE-DAP or MDP (both at 10 µM) and 1 ng/mL LPS for 20 h, followed by determination of TNF-α release in the supernatant. Columns represent means of duplicates ± SD of three independent experiments. * p < 0.05, ** p < 0.01 and *** p < 0.001 vs. MDP/LPS- or C12-iE-DAP/LPS-treated cells (Kruskal-Wallis test and post hoc Dunn’s multiple comparison test).
For all experiments, THP-1 cells (Istituto Zooprofilattico di Brescia, Brescia, Italy) were diluted to 10^6 cells/mL in RPMI 1640 containing 2 mM L-glutamine, 0.1 mg/mL streptomycin, 100 IU/mL penicillin, 50 μM 2-mercaptoethanol, and supplemented with 10% heat-inactivated fetal calf serum (media) and cultured at 37 °C in 5% CO2. The experiments were carried out on passages 3–12. To evaluate IL-8 and TNF-α production, cultures were set up in 24-well culture plates containing 500 μL of cells. […]
IL-8 and TNF-α release from THP-1 cells were measured in cell-free supernatants obtained by centrifugation at 3000 rpm for 5 min and stored at −80 °C until measurement. IL-8 and TNF-α production were assessed by specific sandwich ELISA (Immunotools, Friesoythe, Germany; eBioScience/R&D Systems, Minneapolis, MN, USA). […]

For series [6], the system named is THP-1 cells. Briefly: IL-8 and TNF-α release from THP-1 cells treated with the compound alone or with LPS. Format: cell-based, human. The note with it: 20 h; for TNF-α release from naive THP-1 cells: agonist alone; for IL-8 release from naive THP-1 cells: MDP 2–200 µM, C12-iE-DAP 2–50 µM; for effect on LPS-induced TNF-α production: agonist 10 µM in combination with 1 ng/mL LPS. The method, then: THP-1 cells represent a convenient, robust, and reproducible alternative, which enables intra-assay comparison. A consistent protocol is of key importance to evaluate the compounds in a reproducible and unbiased manner. […] Recognition of an NOD1/NOD2 agonist triggers a signaling pathway leading to the activation of NF-κB and the production of pro-inflammatory cytokines (e.g., TNF-α, IL-1β, IL-6, IL-8). To define the optimal experimental conditions, preliminary experiments were conducted with C12-iE-DAP (lauroyl-γ-D-glutamyl-meso-diaminopimelic acid), an acylated derivative of iE-DAP, as a reference NOD1 agonist, and MDP as a NOD2 agonist. For isolated stimulation of NOD2 and NOD1 receptors, increasing concentrations of MDP (2–200 µM) and C12-iE-DAP (2–50 µM) were used, and the exposure time of 20 h was chosen based on previous experiments using THP-1 cells.
Figure 1 Dose-dependent effect of NOD1/NOD2 agonists on IL-8 (A) and TNF-α (B) secretion from THP-1 cells. IL-8 and TNF-α release from THP-1 cells were measured following 20 h treatment with increasing concentrations (up to 200 µM) of either C12-iE-DAP (NOD1 agonist) or MDP (NOD2 agonist). Columns represent means of duplicates ± SD of three independent experiments; * p < 0.05 vs. CTRL (Mann–Whitney test). Synergy of NOD1/NOD2 agonists and LPS (TLR4 agonist) on IL-8 (C) and TNF-α (D) secretion. IL-8 and TNF-α release from THP-1 cells were measured following 20 h treatment with either C12-iE-DAP or MDP, both at 2 and 10 µM, in the presence or absence of increasing concentrations of LPS (1 or 10 ng/mL). Columns represent means of duplicates ± SD of three independent experiments; * p < 0.05 vs. CTRL (Mann–Whitney test).
as §1, §2

SMILES strings stand for the structures.

By IC50 is commonly meant the concentration that gives 50% inhibition. As to `CCOC(=O)c1cc2ccccc2n1S(=O)(=O)c1ccc(C)cc1` [SZA-39], the IC50 is 6.45 µM in the series with NOD2 [1], 5.74 µM in the series on NOD1 [2], 27.5 ± 6.85 µM at NOD1 [3] and 14.4 ± 1.97 µM at NOD2 [4].
Turning to `O=C(Cn1c(CCNC(=O)c2ccccc2)nc2ccccc21)Nc1ccc2c(c1)CCC2` [GSK669], in the series on THP-1 cells [5], the “concentrations showing cytotoxicity (LDH leakage)” value is on record as at least 10 µM. Besides, the IC50 in the series on NOD2 [1] is 3.2 µM; in the series on NOD1 [2] it was above 50 µM; at NOD1 [3] it was above 50 µM; at NOD2 [4] it was 1.57 ± 0.15 µM. For the same molecule, in the series with NOD1/2–TLR4 synergy, the “effect on TNF-α release from co-stimulated cells” value was “reduced TNF-α release to the level induced by the TLR4 agonist alone”.
Turning to `Cc1ccc(S(=O)(=O)n2c(N)nc3ccccc32)cc1` [ML130], the IC50 in the series on NOD2 [1] is 54.9 µM; at NOD2 [4], above 50 µM.
Consider `CC(=O)N[C@H]1C(O)O[C@H](CO)[C@@H](O)[C@@H]1O[C@H](C)C(=O)N[C@@H](C)C(=O)N[C@H](CCC(=O)O)C(N)=O` (mixture of isomers) [MDP, muramyl dipeptide], for which, in the series with THP-1 cells [6], the “TNF-α release from naive THP-1 cells” value is given as “neither MDP nor C12-iE-DAP produced substantial TNF-α release”, the “IL-8 release from naive THP-1 cells” value is recorded as “dose-dependent increase in IL-8 release” and the “effect on LPS-induced TNF-α production” value was “significantly potentiated the production of TNF-α”.
Take `C/C=C/Cn1c(=O)c2[nH]c(SCCCc3ccccc3)nc2n(C)c1=O` [ML146]: the IC50 in the series with NOD2 [1] is 12.9 µM; in the series on NOD1 [2] it was 4.35 µM; at NOD1 [3] it was 10.5 ± 1.32 µM; on NOD2 [4], 32.2 ± 5.16 µM.
For `CCCCCCCCCCCC(=O)N[C@H](CCC(=O)N[C@@H](CCC[C@@H](N)C(=O)O)C(=O)O)C(=O)O` [C12-iE-DAP, lauroyl-γ-D-glutamyl-meso-diaminopimelic acid], in the series on THP-1 cells [6], the “TNF-α release from naive THP-1 cells” value is on record as “neither MDP nor C12-iE-DAP produced substantial TNF-α release”, the “IL-8 release from naive THP-1 cells” value is recorded as “dose-dependent increase in IL-8 release” and the “effect on LPS-induced TNF-α production” value was “significantly potentiated the production of TNF-α”.
